System: red blood cells
Test: Haemolysis assay
Type: cell-based
Details: human red blood cells, 1 h at 37 ℃
Method: The surfactant may be absorbed and penetrate to the cell membrane, where it makes osmotic phenomena by altering the permeability of membrane, which in turn causes the cellular lysis. Haemolysis assay gives quantitative estimation about haemoglobin release when red blood cells are treated with QASs. Haemolytic assay of QASs at different concentration was carried out in Table 4. […] For 5a-b, 6a-b, 10a-c, 13a-b, and 16a-d, their safe concentration can more than 100 μg/mL. Compared with BZK and CA, all QASs were safe to be used when they circulated into the blood in low concentration. […]
The human blood from healthy individual was collected in a tube containing heparin, and the blood was centrifuged at 1500 rpm for 3 min. The […] (Erythrocyte) was collected and plasma was discarded and further washed five times with sterile normal saline solution. Then the cells were diluted to 0.2% of their volume with normal saline solution. 2 mL of the diluted red blood cells suspension was mixed with (a) 2 mL of normal salinesolution as a negative control; (b) 2 mL of distilled water as a positive control; (c) 2 mL of QAS solution which were dispersed into normal saline solution at the different concentrations ranging from 3.125 to 400 μg/mL. Then the mixtures were shaken well and incubated for 1 h at 37 ℃. Finally, the mixtures were centrifuged for 5min at 2000 r/min and the absorbances of supernatant at 540 nm was measured by a microplate reader (Multiskan MK3-Thermo Labsystems, USA). The hemolysis ratio was calculated as follows: The hemolysis ratio(%) = (OD Sample−OD Negative)/(OD Positive −OD Negative) ×100%. The hemolysis evaluation of QASs was performed in triplicate and results were expressed as the mean ± SD.

Substance: Benzalkonium chloride [BZK, reference compound]
- Haemolysis rate (6.25 μg/mL): 1.51 ± 0.31%
- Haemolysis rate (12.50 μg/mL): 1.39 ± 0.38%
- Haemolysis rate (25.00 μg/mL): 12.69 ± 1.87%
- Haemolysis rate (50.00 μg/mL): 63.85 ± 4.56%
- Haemolysis rate (100.00 μg/mL): 92.36 ± 3.78%
- Haemolysis rate (200.00 μg/mL): 96.28 ± 2.97%
- Haemolysis rate (400.00 μg/mL): 98.53 ± 1.23%

— PMC6010013, “Synthesis, physiochemical property and antimicrobial activity of novel quaternary ammonium salts” (Journal of Enzyme Inhibition and Medicinal Chemistry, 2017)
